Drawing on a melting point compilation (Tetko et al.; mined from patent text by program, amines drawn as free bases though some values may be those of a salt), this text covers melting point for 60 compounds.

One may read the melting point as the temperature of the solid-liquid transition. Turning to `Cc1nc(N)sc1S(=O)(=O)NCCO`, the melting point turned out to be 151 °C. The same measure for `COc1ccc(-c2cc(=Nc3c(C)cc(C)cc3C)n(C)c(=O)n2C)cc1N`: 176 to 178 °C. `CC1(CC(=O)O)OCCc2nc(-c3ccc(Cl)cc3)sc21` (stereo not given) came in with a melting point of 162 to 164 °C. The result for `CN(C(=O)OC(C)(C)C)C1CCN(c2nc(N3CCOCC3)nc(-n3c(C(F)F)nc4c(O)cccc43)n2)CC1` reads 220 to 222 °C. The same measure for `CCCCCC(CC(=O)Nc1cc(CCC(=O)NC)ccc1C(C)(C)C)c1c(OC)cccc1OC` (stereo not given): 111 to 112 °C; for `COC(=O)c1cc2c(cc1C#Cc1ccccc1)NC(=O)CC(c1cccc(C#N)c1)=N2`: above 250 °C. The same measure for `N=C(NCc1ccncc1)NN=Cc1c(Cl)cccc1Cl`: 159 to 161 °C; for `O=C(CCCCCl)c1cc2c3c(c1)CC(=O)N3CCC2`: 89 to 90 °C; for `CS(=O)(=O)c1ccc(Oc2ccc(O)cc2)cc1`: 129 to 130 °C.

For `CSc1ccc(-c2coc3ccc(-c4nnc(N)o4)cc23)cc1`, the melting point was 255 to 256 °C.

`CC(C)Nc1cccnc1N1CCN(C(=O)c2ccc(C(=O)NC(CO)CO)cc2)CC1`: the melting point fell in the range of 147 to 149 °C. `COc1ccc2c(=O)c(CSC)cn(C)c2c1`: the melting point fell in the range of 135 to 136 °C. As for `Nc1c(-c2ccc(Br)cc2)nc2ccc(F)cc2c1C(=O)O`, the melting point was 231 to 233 °C. The same measure for `CCC(O)(c1cccc(C(F)(F)F)c1)c1ccc(O)cc1O` (stereo not given): 137 to 138 °C; for `Cc1cc(Oc2ccc(S(C)(=O)=O)nc2)cc2cc(C3=NCC(CC(=O)O)S3)[nH]c12` (stereo not given): 248 to 249 °C; for `CC(C)(C)c1cc(C(=NO)c2ccccc2)cc(C(C)(C)C)c1O`: 151 °C. The result for `O=P(COc1ccc2ccccc2c1-c1c(OCP(=O)(c2ccccc2)c2ccccc2)ccc2ccccc12)(c1ccccc1)c1ccccc1` reads 252 to 253 °C; that for `CSCC(C)NC(=O)c1c(I)cccc1C(=O)Nc1ccc(C2(c3ccc(Cl)cc3)CC2(F)F)cc1C` (stereo not given), 229 to 232 °C. The result for `COc1ccc(CSc2nc3cnccc3[nH]2)cc1` reads 160 to 161 °C; that for `C=CCC1(CC=C)CCC(=Cc2ccc(F)cc2)C1(O)Cn1cncn1` (stereo not given), 112 °C. `CN1C(=O)CCC2(C)c3ccc(Sc4ccccc4F)cc3CCC12` (single isomer, unassigned; (+)) had a melting point of 100 to 103 °C. For `CC(C)(C)OC(=O)Nc1cc(OCC#N)c(-c2ccc(F)cc2)cc1[N+](=O)[O-]`, the melting point stood at 148 °C.

`CCCCOC1C=CC(=O)N1S(=O)(=O)c1cccc(C(F)(F)F)c1` (stereo not given) showed a melting point of 42 to 43 °C. In the case of `CCOc1cc(N)c(Cl)cc1C(=O)NCCC1CN(Cc2ccccc2)CCO1` (stereo not given), the melting point lay within 149 to 151 °C. The same measure for `CC(C)(C)n1c(=O)[nH]c2ccccc21`: 146 to 147 °C; for `CC1(C)COP(N(CCCCCCN(C2CC(C)(C)NC(C)(C)C2)P2OCC(C)(C)CO2)C2CC(C)(C)NC(C)(C)C2)OC1`: 103 °C. The result for `Nc1nc2c(nc(Br)n2Cc2ccc(Cl)cc2)c(=O)[nH]1` reads above 300 °C; that for `Cc1ccc(NC(=O)C(C)(C)C)c(-c2ccnc(OCC(F)(F)F)n2)c1`, 126 to 128 °C.

Regarding `COc1cc(N)c(Cl)cc1C(=O)NCC1CCN(CCCCCOc2ccc(F)cc2)CC1`, the melting point lay within 105 to 107 °C.

Consider `COc1ccc(Cn2c(NC3CCN(CCNc4ncccn4)CC3)nc3ccccc32)cc1`, for which the melting point is 160 °C.

`CC(=O)NCCc1cnn2ccc3c(c12)CCO3` gave a melting point of 174 to 175 °C. The result for `CCCc1c(SCCCOc2ccc3c(=O)cc(CCC(=O)O)oc3c2CCC)ccc(C(C)=O)c1O` reads 122 to 124 °C. The compound `Cc1nc(N2CCc3ccccc3CC2)c(C#N)c(=O)n1OCC(F)(F)F` registered a melting point above 200 °C. `O=S1(=O)CCN2CCCC(c3ccc(Oc4cccc(Cl)c4)cc3)C2=N1` (stereo not given) showed a melting point of 165 to 167 °C. The same measure for `CCOC(=O)c1c(N2CCN(C(=O)c3cccs3)CC2)c2cscc2n(Cc2ccc(F)cc2)c1=O`: 227 °C; for `Cn1nc2c(-c3ccc(Cl)cc3Cl)cccc2c1-n1cnnc1`: 118 to 121 °C; for `CCOC(=O)c1sc(-n2cnn(CC3CC3(F)F)c2=O)nc1C` (stereo not given): 146 to 148 °C. The result for `CCCCCCc1cc2c(cc1S)C(=O)CC2` reads 100 °C; that for `CCOc1ccc(C(=O)N2CCc3cc(S(=O)(=O)N4CC(c5ccccc5)NC4=O)ccc32)cc1` (stereo not given), 216 to 218 °C; that for `Cc1cc([N+](=O)[O-])ccc1S(=O)(=O)n1c(Br)nc(Br)c1C`, 187 to 189 °C. The same measure for `O=c1cnc(C(F)(F)F)cn1-c1c(Cl)cc(C(F)(F)F)cc1Cl`: 109 to 111 °C. The compound `CCCn1ncc(C(N)=O)c1N` displayed a melting point of 183 to 185 °C. In the case of `O=[N+]([O-])c1ccccc1NCCCCCCCCCCCCNc1ccccc1[N+](=O)[O-]`, the melting point lay in the range of 79 to 80 °C. As to `CC(C)COc1c(-c2ccc(S(C)(=O)=O)cc2)cnn(-c2cccc(Cl)c2)c1=O`, the melting point was in the range of 166 to 169 °C. The same measure for `N#CSCCNc1ccccc1[N+](=O)[O-]`: 112 to 113 °C; for `COc1ccc(C(=O)N2CCc3cc(O)c(OC)cc3C2)cc1`: 173 to 174 °C; for `C=C(CC)C(=O)c1ccc(OC2(C(=O)O)CCC2)c(Cl)c1Cl`: 120 °C. The same measure for `COC(=O)CCCCCCCCCCC(C)=S`: below 25 °C; for `CCCN1OCC(=Cc2cc(C(C)(C)C)c(O)c(C(C)(C)C)c2)C1=O`: 194 to 196 °C; for `CCCOC(=O)C(OC)C(=O)Nc1cc(Cl)cc(Cl)c1` (stereo not given): 89 to 92 °C. Consider `O=c1ccn(-c2ccc(N3CCOCC3)cc2)nc1-c1ccnn1-c1ccccc1`, for which the melting point fell in the range of 205 to 206 °C. In turn, `CN(c1cc(Cl)ncn1)n1cccc1` showed a melting point of 88 to 89 °C.

With `O=C(NNC(=O)c1c(F)c(F)c(F)c(F)c1F)c1cc(Cl)ccc1Cl`, the melting point is 227 to 232 °C. `O=C(O)c1ccc(NCCNC(=O)C2Cc3ccccc3N2S(=O)(=O)c2ccc(-c3cc(C(F)(F)F)ccc3Cl)cc2)cc1` (stereo not given) showed a melting point of 130 °C. The same measure for `COC1(c2cc(F)cc(OCC#Cc3ccc(Cc4nc(-c5ccccc5)c(-c5ccc(S(N)(=O)=O)cc5)o4)cc3)c2)CCOCC1`: 86 to 100 °C; for `CCCc1nc2c(N)nc3cc(OCc4ccc(C)cc4)ccc3c2n1CC(C)C`: 205 to 207 °C; for `CCOc1ccccc1C(=N)N`: 78 to 84 °C. The same measure for `CN(C)CCCN1CCC(O)(c2ccccc2)C(C(=O)c2ccccc2)C1` (stereo not given): 114 to 116 °C; for `O=C(c1ccccc1)c1cc([N+](=O)[O-])ccc1-n1nc(CN2C(=O)c3ccccc3C2=O)cc1CN1C(=O)c2ccccc2C1=O`: 220 to 224 °C; for `CC(=O)Nc1ccc(S(=O)(=O)NCCc2ccccc2)cc1`: 98 °C.
